Measurements published in patent US20180228778A1, “COMPOSITIONS COMPRISING S1P RECEPTOR MODULATORS” (Akaal Pharma Pty Ltd, priority 2015, published 2018).

Assays:
[1] = system: Phorbol ester mediated irritant contact dermatitis in Swiss albino mice; assay: Phorbol ester mediated irritant model of contact dermatitis; format: in vivo; conditions: for reduction of ear swelling (inflammation): alone or in combination (Figure 3)
Protocol: The local application of Phorbol ester stimulates protein Kinase C (PKC), COX, LOX activity, formation of free radicals including the synthesis of mediators that regulate the production of TNF-α. The whole process mediates inflammation and hyperplasia as observed in inflammatory skin diseases such as psoriasis, eczema and others.
The topical efficacy of AKP (a compound of formula (I)) was determined in the Phorbol ester mediated irritant model of contact dermatitis. The 24 animals (Swiss albino mice) were divided in four groups (G1-4) of 6 each; G1 (control and vehicle treated), G2 (PMA challenged and vehicle treated), G3 (PMA challenged and clobetasol treated) and G4 (PMA challenged and AKP treated). The topical application of AKP (3% formulation; or as a DMSO solution) shown significant inhibition of ear inflammation (>40%; p<0.05). […] The combination reduced ear swelling (inflammation) by 43% (p[…]0.001) as shown in Figure-3 (Topical efficacy of AKP, betamethasone or combination in mice model of Phorbol ester mediated irritant contact dermatitis).

[2] = system: DNFB-induced delayed type hypersensitivity (DTH) in BALB/c mice; assay: Dinitroflurobenzene (DNFB)-induced delayed type hypersensitivity (DTH) in BALB/c mice; format: in vivo; conditions: oral, twice daily 3 mg/Kg
From the text: The formulation of representative compound of formula I have shown efficacy in a delayed-type hypersensitivity (DTH) reaction model. The DTH is an expression of cell-mediated immunity and plays a major role in the pathology and chronicity of many inflammatory disorders including inflammatory skin indications. One of the most characteristic DTH phenomena is contact hypersensitivity, which is characterized by swelling and increased tissue levels of cytokines. Contact hypersensitivity (CHS) is a T cell mediated immune reaction in response to cutaneous sensitization and challenge with reactive haptens those are capable of binding directly to soluble and cell associated proteins and recognized by T cells in the context of self-MHC products. The cells that recognize antigen-protein complex in the skin are the Langerhans cells (LCs). After topical application of an allergen, Langerhans cells (LCs), the major antigen-presenting cells (APCs) for the induction of immune responses in skin, show enhanced expression of surface MHC class II molecules, and start to emigrate from the skin to regional lymph nodes where specific lymphocyte activation is thought to occur. After a second contact with the haptens, T cells are first recruited into tissues and then activated by antigen-presenting cells to produce cytokines that mediate local inflammation. Myeloperoxidase (MPO) is an enzyme exclusively present in neutrophils granules, which is commonly used as an index of granulocyte infiltration.
The effect of AKP (a compound of formula (I)) as an oral treatment was evaluated in dinitroflurobenzene (DNFB)-induced delayed type hypersensitivity (DTH) in BALB/c mice. A total of 18 female BALB/c mice were randomly assigned to 2 groups, Group 1: DTH treated with the vehicle of AKP (N=9); Group 2: DTH treated with AKP-11 twice daily dose of 3 mg/Kg (N=9). […] Ear thickness was measured with a micrometer before challenge and 24 h after challenge. Ear weight was measured 24 h after challenge. […]

[3] = system: LPS challenged macrophages (RAW cells); assay: Inhibition of pro-inflammatory cytokines and factors in LPS challenged macrophages (RAW cells); format: cell-based; conditions: in-vitro, 1 to 5 μM
Protocol: The pro-inflammatory cytokines and factors are over expressed in inflammations, cancer and other indications. Lipopolysaccharide is well known to induce various pro-inflammatory factors in the monocytes (RAW cells) and the efficacy of compound on the LPS challenged cells was evaluated for the inhibition of tumor necrosis factor (TNFα), interleukins; IL1P, IL6, and factors such as inducible nitroxide synthase (iNOS), COX-2 and vascular endothelial growth factor (VEGF).

[4] = system: mild to moderate psoriasis; assay: Phase I clinical study of topical use in healthy volunteers and psoriasis patients; format: in vivo, human; conditions: daily for 28 days
Protocol: In a clinical study healthy volunteers and psoriasis patients with mild to moderate psoriasis were treated daily for 28 days.
The local psoriasis severity index (LPSI) was measured and recorded significant efficacy (>40%; p=0.0016; Figure-4). FIG. 4 illustrates the clinical effect of AKP.

Structure (SMILES)	count of lymphocytes in the blood ([1]; topical application)	inhibition of ear inflammation ([1]; topical, 3% formulation or DMSO solution, PMA challenged, p<0.05) [%]	reduction of ear swelling (inflammation) ([1]; topical) [%]	ear thickness ([2]; 24 h after DNFB challenge)	ear weight ([2]; 24 h after DNFB challenge)	tissue MPO activity (right ear) ([2]; at sacrifice)	inhibition of pro-inflammatory cytokines and factors (TNFα, IL1P, IL6, iNOS, COX-2, VEGF) [3]	AKP in blood (systemic exposure) [4]	serious adverse events [4]	local psoriasis severity index (LPSI) efficacy ([4]; p=0.0016, Figure 4) [%]
CCCOc1ccc(-c2nc(-c3ccc4oc(C(N)(CO)CO)cc4c3)no2)cc1Cl [AKP]	did not alter	> 40	30	significantly reduced	significantly reduced	significantly reduced	markedly inhibited	not evident in blood	no serious adverse event	> 40
C[C@H]1C[C@H]2[C@@H]3CCC4=CC(=O)C=C[C@]4(C)[C@@]3(F)[C@@H](O)C[C@]2(C)[C@@]1(O)C(=O)CO [betamethasone, reference compound]	–	–	30	–	–	–	–	–	–	–
